Assay results taken from US10690673B2, “Method of treating cancer metastasis by CDK 4/6 inhibitors” (Mayo Foundation for Medical Education and Research, priority 2016, dated 2020).
Where a SMILES comes first, the peptide text is derived from it. The star is where a group is joined. Cbz = O=C(OCc1ccccc1)*

Experiments:
SNAIL1 polypeptide = SNAIL1 polypeptide level by Western blotting in breast cancer cells; assay type: cell-based, human; conditions: for SNAIL1 polypeptide level: 0, 3, 6, or 9 μM for 18 hours
Method: FIG. 3. DUB3 deubiquitinates and stabilizes SNAIL1. (A) Cell extracts were prepared from 4 luminal and 4 basal like subtypes of human breast cancer cell lines, and expression of SNAIL1, DUB3, E-cadherin and vimentin was analyzed by Western blotting. (B) MDA-MB-231 cells stably expressing control or DUB3 shRNAs were generated and Western blot was performed with the indicated antibodies. (C) Total RNA was isolated from cells in (B). mRNAs encoding SNAIL and β-actin were determined by reverse transcription-polymerase chain reaction (RT-PCR) and agarose gel electrophoresis. (D) MDA-MB-231 cells stably expressing control or DUB3 shRNAs were treated with vehicle or MG-132 (10 μM) for 1 hour and Western blot was performed with the indicated antibodies. (E-F) T47D and MCF-7 cells were infected with virus containing vector (“V”), FLAG-DUB3 (“WT”) and the C89S (“CS”) mutant, and Western blots were performed. (F) CHX pulse-chase assay was performed in cells. (G) Cells were cotransfected with indicated plasmids and treated with MG132 for 6 hours before cell lysates were boiled and immunoprecipitated with HA beads, and the polyubiquitylated SNAIL1 polypeptide was detected by an anti-ubiquitin antibody. (H) Cells were transfected with HA-SNAIL1 and treated with MG132 for 6 hours. Cell lysates were boiled and immunoprecipitated with HA beads and incubated with GST, GST-DUB3 or GST-DUB3 C89S mutant. The polyubiquitylated SNAIL1 polypeptide was detected by an anti-ubiquitin antibody.
FIG. 10. Ser41 phosphorylation regulates DUB3 activity. (A) Cells transfected with indicated constructs were lysed and co-immunoprecipitations experiments were performed using anti-FLAG antibody. The immunoprecipates were eluted by FLAG-peptide containing buffer and the activities of DUB3 were assayed using Ubiquitin-AMC (Ub-AMC) as a substrate. (B) The eluates were detected with anti-FLAG antibody. (C) MDA-MB-231 cells were treated with either vehicle or […] for indicated periods. Western blotting was performed with indicated antibodies.
FIG. 11. Phosphorylation of Ser41 regulates DUB3 activity. (A) Cells were cotransfected with indicated plasmids and treated with vehicle or CDK 4/6 inhibitor (PD0332991 10 μM). Cell lysates were boiled and immunoprecipitated with HA beads and immunoblotted as indicated. […] (G) The migratory abilities of cells were analyzed by a wound healing assay. […] After 12 weeks, mice were sacrificed and the development of lung metastases was determined by counting and quantifying lung metastatic nodules.
FIG. 14. […] (B) MDA-MB-231 cells were treated with vehicle or LY2835219 and the migration ability of cells was measured by a wound healing assay. […] (D) HCC1806 cells were treated with vehicle or LY2835219 and the migration ability of cells was measured by a wound healing assay. […]

[1] = system: phosphorylation of DUB3 at Ser41; assay: Phosphorylation of DUB3 at Ser41 in transfected cells (anti-FLAG immunoprecipitation, Western blotting); assay type: cell-based; conditions: cells transfected with FLAG-DUB3 WT
Method: FIG. 8. CDK 4/6 phosphorylates DUB3 at Ser 41. (A) DUB3 phosphorylation sites were analyzed by mass spectrometry. If the Ascore values for Ascore Seq_A are above 19, then the location is considered confidently assigned (indicated with pink cell backgrounds). (B) Cells were transfected with indicated plasmids and cell lysates were subjected to immunoprecipitation with an anti-FLAG antibody and Western blotting was performed. (C) Cells were transfected with indicated plasmids and were treated with vehicle, or pan-CDK inhibitor (Roscovitine 5 μM) or CDK 4/6 inhibitor (PD0332991 10 μM). The phosphorylation of Ser41 was examined. (D) CDK 4/6 phosphorylates DUB3 in vitro. Bacterially expressed GST and GST-DUB3 fusion polypeptides were incubated with active CDK4 or CDK6 in the presence of [γ-32P]ATP. Polypeptides were resolved by SDS-PAGE, and phosphorylated polypeptides were visualized with autoradiography. (E) Vector or FLAG-DUB3 were transfected in cells stably expressing indicated shRNA. The phosphorylation of Ser41 in DUB3 was then examined.
FIG. 15. CDK1 phosphorylates DUB3 at Ser41 in vitro, and the treatment of pan-CDK inhibitor Roscovitine decreased phosphorylation of DUB3. (A) Bacterially-expressed GST-DUB3 WT and GST-DUB3 S41A fusion polypeptides were incubated with active CDK4, CDK6, CDK1, or CDK2 in the presence of [γ-^32P]ATP. […]

[2] = system: human breast tumor biopsy sample HCI001; assay: Patient-derived xenograft (PDX) model of triple negative breast cancer, tumor growth and metastasis; assay type: in vivo, mice; conditions: 100 mg/kg daily, PO, five weeks; saline group 6/8; significantly decreased
Method: FIG. 13. CDK 4/6 inhibition inhibits cancer metastasis. (A) DUB3 and SNAIL1 polypeptide levels in a subset of human breast tumor biopsy samples were examined. (B) Passage 3 tumors from HCI001 were used to test the effect of PD0332991 on metastasis. When primary tumors reached 100-150 mm^3, mice were randomized and treated either with saline or PD0332991 for five weeks (n=8). Tumor weights were measured after mice were sacrificed (B). Tumor volumes were measured every week (C). After mice were sacrificed, liver (D-F) and lung (G-I) metastatic nodules were examined macroscopically or detected in paraffin-embedded sections stained with H&E. (J) The working model to illustrate that CDK 4/6 phosphorylation-dependent activation of DUB3 regulates EMT and metastasis through SNAIL1.
The results provided herein indicate that DUB3 stabilizes SNAIL1 polypeptide through deubiquitinating SNAIL1 and CDK 4/6 activity is involved in SNAIL1 stabilization. […] DUB3 and SNAIL1 levels were detected and correlated in a subset of human breast cancer samples from the BEAUTY project (FIG. 13A). […]
A patient-derived xenograft model was generated from an estrogen receptor-negative, progesterone receptor-negative, human epidermal growth factor receptor 2-negative (ER^−PR^−_HER2^−) high-grade invasive ductal carcinoma. […] Tumor volumes were measured once per week. […] Data were analyzed using Student's t test. […]

**Q.** Which “effect on decreased SNAIL1 polypeptide level in cells depleting DUB3” value (SNAIL1 polypeptide; MDA-MB-231 cells stably expressing DUB3 shRNAs, MG-132 10 μM for 1 hour, FIG. 3D) does the source give for `CC(C)C[C@@H](C=O)NC(=O)[C@H](CC(C)C)NC(=O)[C@H](CC(C)C)NC(=O)OCc1ccccc1` [MG-132] (Cbz-Leu-Leu-Leu-aldehyde) here?
**A.** rescue

**Q.** And the “effect on PD0332991-induced reduction of SNAIL1 polypeptide level” value (SNAIL1 polypeptide; MDA-MB-231 cells, PD0332991 in the presence of MG-132, FIG. 11D)?
**A.** reversed

**Q.** With `CC[C@H](CO)Nc1nc(NCc2ccccc2)c2ncn(C(C)C)c2n1` [Roscovitine] as the compound, how does the “phosphorylation of DUB3 at Ser41” value ([1]; Example 11, FIG. 15B, concentration not given) read?
**A.** dramatically reduced

**Q.** What about the “phosphorylation of DUB3 at Ser41” value ([1]; Roscovitine 5 μM, FIG. 8C) of the same compound?
**A.** dramatically reduced

**Q.** Which SNAIL1 polypeptide level (SNAIL1 polypeptide; BT549 cells, FIG. 16) does the source give for `Nc1nc(N)c(N=O)c(OCC2CCCCC2)n1` [DU6027] here?
**A.** decreases

**Q.** And the SNAIL1 polypeptide level (SNAIL1 polypeptide; MDA-MB-231 cells, FIG. 17)?
**A.** decreases

**Q.** For `CC(=O)c1c(C)c2cnc(Nc3ccc(N4CCNCC4)cn3)nc2n(C2CCCC2)c1=O` [PD0332991, Palbociclib], which “liver metastasis (mice with metastasis / mice in group)” value [2] is on record?
**A.** 1/8

**Q.** And the “lung metastasis (mice with metastasis / mice in group)” value [2]?
**A.** 2/8
